Measurements as given in patent US12421207B2 (CMG Pharmaceutical Co., Ltd., priority 2022, dated 2025).
Like-named read-outs stand apart in the source and are kept apart here.

Tests used:
PC9/ER cells = assay: Cell viability assay (CellTiter-Glo 2.0), erlotinib-resistant PC9/ER cells; format: cell-based; conditions: Homo sapiens, PC-9/ER, 72 h drug treatment, read-out: Relative cell viability, IC50 PC9ER
Text: (§1) To explore c-MET and AXL mechanisms of EGFR TKI resistance, resistant cells of the EGFR TKI hypersensitive EGFR exon 19 mutant NSCLC cell line, HCC827 and PC9 were generated by exposing these cells to increasing concentrations of EGFR TKI for over 3 months.
(§2) Gefitinib-resistant cells were referred to as HCC827/GR. […] Osimertinib-resistant cells were referred to as HCC827/OR.

HCC827/ER cells = assay: Cell viability assay (CellTiter-Glo 2.0), erlotinib-resistant HCC827/ER cells; format: cell-based, human; conditions: Homo sapiens, HCC827ER, read-out: Relative cell viability
Text: as §1, §2

HCC827/GR cells = assay: Cell viability assay (CellTiter-Glo 2.0), gefitinib-resistant HCC827/GR cells; format: cell-based, human; conditions: Homo sapiens, HCC827, 72 h drug treatment, read-out: Relative cell viability, IC50 HCC827GR
Text: as §1
The human cell line HCC827 was purchased from the American Type Culture Collection (Manassas, VA), and the PC9 cell line was obtained from RIKEN Cell Bank (Ibaraki, Japan). […] Gefitinib-resistant cells were referred to as HCC827/GR. […] Osimertinib-resistant cells were referred to as HCC827/OR.
(§3) Cell viability assays were carried out by plating 1,000 cells per well of HCC827 or PC9 resistant cells, respectively, into white transparent-bottom 384-well plates. The cells were treated with each TKI across a 10-dose range from 1 nM to 10,000 nM. After 72 h of drug treatment, cell viability was measured using the CellTiter-Glo 2.0 assay (Promega, Madison, WI).
as §3

HCC827/OR cells = assay: Cell viability assay (CellTiter-Glo 2.0), osimertinib-resistant HCC827/OR cells; format: cell-based, human; conditions: Homo sapiens, HCC827, 72 h drug treatment, read-out: Relative cell viability, IC50 HCC827OR
Text: as §1, §2

[1] = Table 2, EGFR TKI resistant cells, combination with EGFR TKI
[2] = Table 2, 72 h drug treatment, EGFR TKI resistant cells, combination with EGFR TKI
[3] = Table 4, combinations of EGFR TKIs and inhibitor of Formula (I)
[4] = Table 4, 72 h drug treatment, combinations of EGFR TKIs and inhibitor of Formula (I)

Row | IC50 (PC9/ER cells; [1]) [nM] | IC50 (HCC827/ER cells; [2]) [nM] | IC50 (HCC827/GR cells; [1]) [nM] | IC50 (HCC827/OR cells; [1]) [nM] | IC50 (PC9/ER cells; [3]) [nM] | IC50 (HCC827/ER cells; [4]) [nM] | IC50 (HCC827/GR cells; [3]) [nM] | IC50 (HCC827/OR cells; [3]) [nM] | Structure (SMILES)
1 | < 10 | < 10 | < 10 | < 10 | – | – | – | – | CC(C)N1CCC(CC#Cc2c(Oc3ccc(NC(=O)c4cn(C(C)C)c(=O)n(-c5ccc(F)cc5)c4=O)cc3F)ccnc2N)CC1 [Example 29, N-(4-(2-amino-3-(3-(1-isopropylpiperidin-4-yl)prop-1-ynyl)pyridin-4-yloxy)-3-fluorophenyl)-3-(4-fluorophenyl)-1-isopropyl-2,4-dioxo-1,2,3,4-tetrahydropyrimidine-5-carboxmide]
2 | – | – | – | – | < 1000 | < 1000 | < 1000 | < 1000 | CN(C)C(=O)Cn1cc(C(=O)Nc2ccc(Oc3ccnc(N)c3C#CC(C)(C)N3CCOCC3)c(F)c2)c(=O)n(-c2ccc(F)cc2)c1=O [Example 33, N-(4-((2-amino-3-(3-methyl-3-morpholinobut-1-yn-1-yl)pyridin-4-yl)oxy)-3-fluorophenyl)-1-(2-(dimethylamino)-2-oxoethyl)-3-(4-fluorophenyl)-2,4-dioxo-1,2,3,4-tetrahydropyrimidine-5-carboxamide]
3 | – | – | – | – | < 10000 | < 1000 | < 1000 | < 10000 | CN(C)C(=O)Cn1cc(C(=O)Nc2ccc(Oc3ccnc(N)c3C#CCN3CCOCC3)c(F)c2)c(=O)n(-c2ccc(F)cc2)c1=O [Example 34, N-(4-((2-amino-3-(3-morpholinoprop-1-yn-1-yl)pyridin-4-yl)oxy)-3-fluorophenyl)-1-(2-(dimethylamino)-2-oxoethyl)-3-(4-fluorophenyl)-2,4-dioxo-1,2,3,4-tetrahydropyrimidine-5-carboxamide]
4 | – | – | – | – | > 10000 | < 10000 | > 10000 | < 10000 | CN(C)C(=O)Cn1cc(C(=O)Nc2ccc(Oc3ccnc(N)c3C#CC(C)(C)N3CCNCC3)c(F)c2)c(=O)n(-c2ccc(F)cc2)c1=O [Example 35, N-(4-((2-amino-3-(3-methyl-3-(piperazin-1-yl)but-1-yn-1-yl)pyridin-4-yl)oxy)-3-fluorophenyl)-1-(2-(dimethylamino)-2-oxoethyl)-3-(4-fluorophenyl)-2,4-dioxo-1,2,3,4-tetrahydropyrimidine-5-carboxamide]
5 | – | – | – | – | < 10000 | < 10000 | < 10000 | < 10000 | CN1CCN(C(C)(C)C#Cc2c(Oc3ccc(NC(=O)c4cn(CC(=O)N(C)C)c(=O)n(-c5ccc(F)cc5)c4=O)cc3F)ccnc2N)CC1 [Example 36, N-(4-((2-amino-3-(3-methyl-3-(4-methylpiperazin-1-yl)but-1-yn-1-yl)pyridin-4-yl)oxy)-3-fluorophenyl)-1-(2-(dimethylamino)-2-oxoethyl)-3-(4-fluorophenyl)-2,4-dioxo-1,2,3,4-tetrahydropyrimidine-5-carboxamide]
6 | – | – | – | – | < 10000 | < 10000 | < 10000 | < 10000 | CN1CCC(CC#Cc2c(Oc3ccc(NC(=O)c4cn(CC(=O)N(C)C)c(=O)n(-c5ccc(F)cc5)c4=O)cc3F)ccnc2N)CC1 [Example 37, N-(4-((2-amino-3-(3-(1-methylpiperidin-4-yl)prop-1-yn-1-yl)pyridin-4-yl)oxy)-3-fluorophenyl)-1-(2-(dimethylamino)-2-oxoethyl)-3-(4-fluorophenyl)-2,4-dioxo-1,2,3,4-tetrahydropyrimidine-5-carboxamide]
7 | – | – | – | – | < 10000 | < 10000 | < 10000 | < 10000 | CN(C)C(=O)Cn1cc(C(=O)Nc2ccc(Oc3ccnc(N)c3C#CCC3CCNCC3)c(F)c2)c(=O)n(-c2ccc(F)cc2)c1=O [Example 38, N-(4-((2-amino-3-(3-(piperidin-4-yl)prop-1-yn-1-yl)pyridin-4-yl)oxy)-3-fluorophenyl)-1-(2-(dimethylamino)-2-oxoethyl)-3-(4-fluorophenyl)-2,4-dioxo-1,2,3,4-tetrahydropyrimidine-5-carboxamide]

Second part, the molecule before the results:

Row | Structure (SMILES) | IC50 (PC9/ER cells; [1]) [nM] | IC50 (HCC827/ER cells; [2]) [nM] | IC50 (HCC827/GR cells; [1]) [nM] | IC50 (HCC827/OR cells; [1]) [nM] | IC50 (PC9/ER cells; [3]) [nM] | IC50 (HCC827/ER cells; [4]) [nM] | IC50 (HCC827/GR cells; [3]) [nM] | IC50 (HCC827/OR cells; [3]) [nM]
8 | CC(C)n1cc(C(=O)Nc2ccc(Oc3ccnc(N)c3-c3ccccc3)c(F)c2)c(=O)n(-c2ccc(F)cc2)c1=O [Example 22, N-(4-(2-amino-3-phenylpyridin-4-yloxy)-3-fluorophenyl)-3-(4-fluorophenyl)-1-isopropyl-2,4-dioxo-1,2,3,4-tetrahydropyrimidine-5-carboxamide] | < 100 | < 100 | < 10 | < 100 | – | – | – | –
9 | CC(C)n1cc(C(=O)Nc2ccc(Oc3ccnc(N)c3C#CC3CCN(C)CC3)c(F)c2)c(=O)n(-c2ccc(F)cc2)c1=O [Example 23, N-(4-(2-amino-3-((1-methylpiperidin-4-yl)ethynyl)pyridin-4-yloxy)-3-fluorophenyl)-3-(4-fluorophenyl)-1-isopropyl-2,4-dioxo-1,2,3,4-tetrahydropyrimidine-5-carboxamide] | < 10 | < 100 | < 100 | < 10 | – | – | – | –
10 | CC(C)n1cc(C(=O)Nc2ccc(Oc3ccnc(N)c3C#CCN3CCOCC3)c(F)c2)c(=O)n(-c2ccc(F)cc2)c1=O [Example 24, N-(4-(2-amino-3-(3-morpholinoprop-1-ynyl)pyridin-4-yloxy)-3-fluorophenyl)-3-(4-fluorophenyl)-1-isopropyl-2,4-dioxo-1,2,3,4-tetrahydropyrimidine-5-carboxamide] | < 10 | < 10 | < 10 | < 10 | – | – | – | –
11 | CC(C)n1cc(C(=O)Nc2ccc(Oc3ccnc(N)c3C#CC(C)(C)N3CCOCC3)c(F)c2)c(=O)n(-c2ccc(F)cc2)c1=O [Example 25, N-(4-(2-amino-3-(3-methyl-3-morpholinobut-1-ynyl)pyridin-4-yloxy)-3-fluorophenyl)-3-(4-fluorophenyl)-1-isopropyl-2,4-dioxo-1,2,3,4-tetrahydropyrimidine-5-carboxamide] | < 10 | < 10 | < 10 | < 10 | – | – | – | –
12 | CC(C)n1cc(C(=O)Nc2ccc(Oc3ccnc(N)c3C#CCN3CCN(C)CC3)c(F)c2)c(=O)n(-c2ccc(F)cc2)c1=O [Example 26, N-(4-(2-amino-3-(3-(4-methylpiperazin-1-yl)prop-1-ynyl)pyridine-4-yloxy)-3-fluorophenyl)-3-(4-fluorophenyl)-1-isopropyl-2,4-dioxo-1,2,3,4-tetrahydropyrimidine-5-carboxamide] | < 1000 | < 10 | < 100 | < 10 | – | – | – | –
13 | CC(C)n1cc(C(=O)Nc2ccc(Oc3ccnc(N)c3C#CCC3CCNCC3)c(F)c2)c(=O)n(-c2ccc(F)cc2)c1=O [Example 27, N-(4-(2-amino-3-(3-(piperidin-4-yl)prop-1-ynyl)pyridin-4-yloxy)-3-fluorophenyl)-3-(4-fluorophenyl)-1-isopropyl-2,4-dioxo-1,2,3,4-tetrahydropyrimidine-5-carboxamide] | < 10 | < 10 | < 10 | < 10 | – | – | – | –
14 | COCCN1CCC(CC#Cc2c(Oc3ccc(NC(=O)c4cn(C(C)C)c(=O)n(-c5ccc(F)cc5)c4=O)cc3F)ccnc2N)CC1 [Example 28, N-(4-(2-amino-3-(3-(1-(2-methoxyethyl)piperidin-4-yl)prop-1-ynyl)pyridin-4-yloxy)-3-fluorophenyl)-3-(4-fluorophenyl)-1-isopropyl-2,4-dioxo-1,2,3,4-tetrahydropyrimidine-5-carboxamide] | < 10 | < 10 | < 10 | < 10 | – | – | – | –
